Measured values as given in ChEMBL document CHEMBL1208785, “Discovery of novel alpha7 nicotinic receptor antagonists” (Bioorg Med Chem Lett, 2010).

Target: Neuronal acetylcholine receptor subunit alpha-7 (Rattus norvegicus) (UniProt Q05941)
Assay: Displacement of [125I]alpha-bungarotoxin from alpha7 nicotinic acetylcholine receptor in rat brain membrane at 10 uM
Format: cell membranes

Chain of Neuronal acetylcholine receptor subunit alpha-7 (Rattus norvegicus) (Q05941 whole entry): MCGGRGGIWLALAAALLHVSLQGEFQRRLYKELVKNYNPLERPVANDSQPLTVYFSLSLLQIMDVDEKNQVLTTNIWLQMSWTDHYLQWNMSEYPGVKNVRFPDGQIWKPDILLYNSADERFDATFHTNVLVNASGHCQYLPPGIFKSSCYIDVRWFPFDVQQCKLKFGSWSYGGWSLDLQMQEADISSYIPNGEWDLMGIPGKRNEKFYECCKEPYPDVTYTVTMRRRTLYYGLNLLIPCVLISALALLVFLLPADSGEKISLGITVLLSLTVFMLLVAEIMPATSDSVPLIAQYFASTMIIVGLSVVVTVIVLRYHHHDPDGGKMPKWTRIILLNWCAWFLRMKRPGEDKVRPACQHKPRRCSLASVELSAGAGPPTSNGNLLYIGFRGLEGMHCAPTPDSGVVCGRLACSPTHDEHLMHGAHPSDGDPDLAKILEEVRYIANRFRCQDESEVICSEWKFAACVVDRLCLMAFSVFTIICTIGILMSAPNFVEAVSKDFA

## Cc1c(C(=O)N(C)C2CCN(C)CC2)cnn1-c1ccc(Cl)cc1
  inhibition: 13.5%

## CCCc1c(C(=O)NC2CCN(C)CC2)cnn1-c1ccccc1
  inhibition: 3.1%

## CN1CCC(N(C)C(=O)c2cnn(-c3ccccc3-c3ccco3)c2C2CC2)CC1
  inhibition: 10.5%

## CCCc1c(C(=O)NC2CCNCC2)cnn1-c1ccccc1
  inhibition: 1%

## CCCc1c(C(=O)NC2CCN(Cc3ccccc3)CC2)cnn1-c1ccccc1
  inhibition: 83.8%

## O=C(NCC1CCN(CCc2ccccc2)CC1)c1cn(Cc2ccc(Cl)cc2)nn1
  inhibition: 18.3%

## Cc1c(C(=O)NC2CCN(Cc3ccccc3)CC2)cnn1-c1ccc(Cl)cc1
  inhibition: 64.1%

## O=C(NCC1CCN(CCc2ccccc2)CC1)c1cn(Cc2ccccc2Cl)nn1
  inhibition: 23.4%

## COCCN1CCC(CN(C)C(=O)c2cn(Cc3ccccc3Cl)nn2)CC1
  inhibition: 43%

## COCCN1CCC(CNC(=O)c2cn(Cc3ccc(Cl)cc3)nn2)CC1
  inhibition: 27.3%

## Cc1c(C(=O)N(C)C2CCN(C)CC2)cnn1-c1ccc(F)cc1
  inhibition: 11.9%

## CC(C)CN1CCC(CN(C)C(=O)c2cn(Cc3ccccc3Cl)nn2)CC1
  inhibition: 72.3%

## Cc1ccc(-c2c(C(=O)NC3CCN(C)CC3)cnn2-c2ccccc2)cc1
  inhibition: 23.4%

## O=C(NCC1CCN(Cc2ccccc2)CC1)c1cn(Cc2ccc3ccccc3c2)nn1
  inhibition: 70.5%

## Cc1ccc(-c2c(C(=O)N(C)C3CCN(C)CC3)cnn2-c2ccccc2)cc1
  inhibition: 12.1%

## O=C(NCC1CCN(C2CCCC2)CC1)c1cn(Cc2ccccc2Cl)nn1
  inhibition: 21.6%

## Cc1ccccc1Cn1cc(C(=O)NCC2CCN(CCc3ccccc3)CC2)nn1
  inhibition: 25.2%

## COc1ccc(Cn2cc(C(=O)NCC3CCN(CCc4ccccc4)CC3)nn2)cc1
  inhibition: 9.5%

## Cc1c(C(=O)NC2CCN(Cc3ccccc3)CC2)cnn1-c1ccc(F)cc1
  inhibition: 50%

## CC(C)CN1CCC(CN(C)C(=O)c2cn(Cc3cc(F)ccc3F)nn2)CC1
  inhibition: 59.2%
